Data reported in PubChem BioAssay (NCI).
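1) Cells in 96-well plates. 2) Compound, 48 h, 5 concentrations. 3) Linear interpolation between surrounding doses. 4) Unreached endpoint = highest concentration. GI50: concentration for 50% inhibition of growth. Definition used: TGI = concentration required for complete inhibition of growth.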

Legend:
Test in all cases: NCI tumour cell line growth inhibition, 48 h
[1] = test system: ACHN renal
[2] = test system: DU-145 prostate
[3] = test system: HCT-15 colon
[4] = test system: LOX IMVI melanoma
[5] = test system: NCI-H226 lung
[6] = test system: NCI-H23 lung
[7] = test system: OVCAR-3 ovarian
[8] = test system: RPMI-8226 leukemia
[9] = test system: SN12C renal
[10] = test system: SW-620 colon

| Compound | TGI [1] [µM] | TGI [2] [µM] | TGI [3] [µM] | TGI [4] [µM] | TGI [5] [µM] | TGI [6] [µM] | TGI [7] [µM] | TGI [8] [µM] | TGI [9] [µM] | TGI [10] [µM] | GI50 [1] [µM] | GI50 [2] [µM] | GI50 [3] [µM] | GI50 [4] [µM] | GI50 [5] [µM] | GI50 [6] [µM] | GI50 [7] [µM] | GI50 [8] [µM] | GI50 [9] [µM] | GI50 [10] [µM] |
| --- | --- | --- | --- | --- | --- | --- | --- | --- | --- | --- | --- | --- | --- | --- | --- | --- | --- | --- | --- | --- |
| COc1c2occc2c(OC)c2c(=O)c(S(=O)(=O)NC(=O)Nc3ccc(Cl)cc3)coc12 | > 10 | > 10 | > 10 | > 10 | > 10 | > 10 | > 10 | > 10 | > 10 | > 10 |  |  |  |  |  |  |  |  |  |  |
| COc1cc2c(cc1OCCCC(=O)Nc1cc(C(=O)Nc3cc(C(=O)Nc4cc(C(=O)NCCCN(C)C)n(C)c4)n(C)c3)n(C)c1)N=C[C@@H]1CCCN1C2=O | 2.99 | 10.2 | 3.86 | 2.26 | 37.9 | 4.4 | 3.62 | 14.6 | 2.63 | 5.98 |  |  |  |  |  |  |  |  |  |  |
| C=CCNC1=C2C[C@@H](C)C[C@@H](OC)C(OC(=O)CCCN(C)C)[C@H](C)/C=C(\C)[C@@H](OC(N)=O)[C@H](OC)/C=C\C=C(/C)C(=O)NC(=CC1=O)C2=O (stereo partly specified) | 20.6 | 18.1 | 19.4 | 21.7 | 29.4 | 20.8 | 11.7 | 44.3 | 12.6 | 16.9 |  |  |  |  |  |  |  |  |  |  |
| COc1ccc(-c2oc3ccc(C)cc3c(=O)c2O)cc1 | > 100 | > 100 | > 100 | > 100 | > 100 | > 100 | > 100 | > 100 | > 100 | > 100 |  |  |  |  |  |  |  |  |  |  |
| COc1ccc(C2SC(N)=Nc3c2c(C)nn3C(=O)c2ccncc2)cc1 (stereo unspecified) | > 100 | > 100 | > 100 | > 100 | > 100 | > 100 | > 100 | > 100 | > 100 | > 100 |  |  |  |  |  |  |  |  |  |  |
| Oc1nc(N/N=C/c2c[nH]c3ccccc23)[nH]c1/C=C1\C=Nc2ccccc21 | 49.1 | > 100 | 61 | 31.1 | 34.4 | 38.5 | 29.6 | 25.5 | > 100 | 35.8 |  |  |  |  |  |  |  |  |  |  |
| COc1ccc2c(c1)OCC1(O)Cc3ccccc3OC21 (stereo unspecified) | > 100 | > 100 | > 100 | > 100 | > 100 | > 100 | > 100 | > 100 | > 100 | > 100 |  |  |  |  |  |  |  |  |  |  |
| CC(C)CC(=O)NC(Nc1ccc(S(=O)(=O)Nc2ncccn2)cc1)(C(F)(F)F)C(F)(F)F | > 100 | > 100 | > 100 | > 100 | > 100 | > 100 | > 100 | > 100 | > 100 | > 100 |  |  |  |  |  |  |  |  |  |  |
| CC(=O)NC1(C)CCC(C(C)(C)NC(C)=O)CC1 (stereo unspecified) | > 100 | > 100 | > 100 | > 100 | > 100 | > 100 | > 100 | > 100 | > 100 | > 100 |  |  |  |  |  |  |  |  |  |  |
| COc1ccc2oc(S(=O)(=O)N3CC(CCl)c4ccc([N+](=O)[O-])cc43)cc2c1 (stereo unspecified) | > 48.1 | 0.317 | 3.3 | 1.38 | 1.43 | > 24 | 0.457 | > 100 | 14 | > 100 |  |  |  |  |  |  |  |  |  |  |
| CCNc1nc(N)c(C(=O)c2ccc(Cl)cc2)s1 | > 100 | > 100 | > 100 | > 100 | 70.6 | > 100 | 65.4 | > 100 | > 100 | > 100 |  |  |  |  |  |  |  |  |  |  |
| CC1(C)CCC[C@]2(C)[C@@H]1CC[C@@]13O[C@@H]1C1=C(CO)C(=O)O[C@]14O[C@@H]4[C@@H]23 | 30.2 | 33.8 | 37.4 | 24 | 42.1 | 28.4 | 27.1 | > 100 | 20.5 | 29.5 |  |  |  |  |  |  |  |  |  |  |
| NNC(=O)CC(=O)Nc1ccc(Cl)cc1 | > 100 | > 100 | > 100 | > 100 | > 100 | > 100 | > 100 | > 100 | > 100 | > 100 |  |  |  |  |  |  |  |  |  |  |
| COc1cc(/C=C2\C[C@H]3[C@@H]4CC=C5C[C@@H](N6CCCC6)CC[C@]5(C)[C@H]4CC[C@]3(C)[C@H]2O)cc(OC)c1OC | 29.3 | 32.1 | 26.5 | 20.8 | 39.7 | 29.9 | 31.2 | 27 | 29.6 | > 61.4 |  |  |  |  |  |  |  |  |  |  |
| CCN1CCN(C(=O)[C@]23CC[C@@H](C)[C@H](C)[C@@H]2C2=CC[C@@H]4[C@@]5(C)C/C(=C/c6cccnc6)C(=O)C(C)(C)[C@@H]5CC[C@@]4(C)[C@]2(C)CC3)CC1 | 6.45 | 4.21 | 3.26 | 3.06 | 4.07 | 5.91 | 3.19 | 6.35 | 3.01 | 4.14 | 2.46 | 2.08 | 1.66 | 1.58 | 1.89 | 2.13 | 1.65 | 2.18 | 1.61 | 1.9 |
| CCOC(=O)C(=[N+]=[N-])C(=O)C[N+]12CCN(CC1)CC2 | > 100 | > 100 | > 100 | > 100 | > 100 | > 100 | > 100 | > 100 | > 100 | > 100 |  |  |  |  |  |  |  |  |  |  |
| O=C(Nc1ccccc1)c1cc2c(cc1Cl)Sc1nccn1S2(=O)=O | > 83.1 | 40.5 | > 75.3 | 39 | > 100 | 53.8 | 59.3 | 70.5 | > 100 | > 78.9 |  |  |  |  | 28.6 |  |  |  |  |  |
